Source: patent US5587374A, “10(1-hydroxyethyl)-11-oxo-1-azatricyclo/7.2.0.0.^3.8/ undec-2-ene-2-carboxylic acid esters and a process for preparing thereof” (Glaxo SpA, priority 1990, dated 1996)

Legend:
[1] = tested on: E. Coli; test: protection tests using mice, orally administered compounds (E. Coli); format: in vivo, mice infected with E. Coli; conditions: Escherichia coli, oral, protection test
[2] = tested on: Staph. aureus; test: protection tests using mice, orally administered compounds (Staph. aureus); conditions: Staphylococcus aureus, in Mus musculus, po, read-out: ED50 Staph. aureus
[3] = oral administration to mice, adverse effects; format: in vivo; conditions: orally administered, doses up to 1000 mg/kg
From the text: The compounds of the invention are also essentially non-toxic at therapeutically useful dose levels.

| SMILES | ED50 [1] [mg/kg] | ED50 [2] [mg/kg] | adverse effects [3] |
| --- | --- | --- | --- |
| CO[C@H]1CCC[C@H]2C1=C(C(=O)OC(C)OC(=O)OC(C)C)N1C(=O)[C@H]([C@@H](C)O)[C@@H]21 (stereo partly drawn) [Example 3, 1-(Isopropyloxycarbonyloxy)ethyl (4S,8S,9R,10S,12R)-4-methoxy-10-(1'-hydroxyethyl)-11-oxo-1-azatricyclo-[7.2.0.0^3,8]undec-2-ene-2-carboxylate] | < 1 | < 1 | – |
| CO[C@H]1CCC[C@H]2C1=C(C(=O)OCOC(=O)C(C)(C)C)N1C(=O)[C@H]([C@@H](C)O)[C@@H]21 [Example 10, [(1,1-Dimethyl-ethyl)carbonyloxy]methyl (4S,8S, 9R, 10S, 12R) -4-methoxy-10-(1'-hydroxyethyl)-11-oxo-1-azatricyclo[7.2.0.0^3,8]undec-2-ene-2-carboxylate] | < 1 | < 1 | – |
| CO[C@H]1CCC[C@H]2C1=C(C(=O)OC(C)OC(=O)OC1CCCCC1)N1C(=O)[C@H]([C@@H](C)O)[C@@H]21 (stereo partly drawn) [Example 1, 1-(Cyclohexyloxycarbonyloxy)ethyl (4S,8S,9R,10S,12R)-4-methoxy-10-(1'-hydroxyethyl)-11-oxo-1-azatricyclo-[7.2.0.0^3,8]undec-2-ene-2-carboxylate] | < 1 | < 1 | no adverse effects were observed |
| CO/N=C(\C(=O)N[C@@H]1C(=O)N2C(C(=O)OC(C)OC(C)=O)=C(COC(N)=O)CS[C@H]12)c1ccco1 (stereo partly drawn) [Cefuroxime axetil, cefuroxime axetil, reference compound] | 26 | 6 | – |
